The results in this text go back to patent US8829007B2 (priority 2009, dated 2014).

The IC50 is the concentration that inhibits the measured activity by half.

The test system of the first assay is influenza A virus (A/PR/8/34). The experiment in a line: microbe, parasite or virus in culture. The following applies: Influenza A virus, PR/8, MDCK, MDCK cells infected with A/PR/8/34, cell protection (CPE); read-out: IC50 (mean all). It is filed as cell-based.
For `CC(=O)c1cccc(NC(=O)N2CCC[C@H](CNc3nc(-c4c[nH]c5ncc(Cl)cc45)ncc3F)C2)c1` [Compound 77, (R)-3-((2-(5-chloro-1H-pyrrolo[2,3-b]pyridin-3-yl)-5-fluoropyrimidin-4-ylamino)methyl)-N-(3-ethanoylphenyl)piperidine-1-carboxamide], the IC50 was in the range of 5 to 20 µM.
In the case of `O=C(Nc1cccc(C(F)(F)F)c1)N1CCC[C@H](CNc2nc(-c3c[nH]c4ncc(Cl)cc34)ncc2F)C1` [Compound 79, (R)-3-((2-(5-chloro-1H-pyrrolo[2,3-b]pyridin-3-yl)-5-fluoropyrimidin-4-ylamino)methyl)-N-(3-(trifluoromethyl)phenyl)piperidine-1-carboxamide], the IC50 is 5 to 20 µM.
As for `O=C(O)c1nccnc1C(=O)N1CCC[C@H](CNc2nc(-c3c[nH]c4ncc(Cl)cc34)ncc2F)C1` [Compound 82, (R)-3-(3-((2-(5-chloro-1H-pyrrolo[2,3-b]pyridin-3-yl)-5-fluoropyrimidin-4-ylamino)methyl)piperidine-1-carbonyl)pyrazine-2-carboxylic acid], the IC50 is greater than 20 µM.
For the compound `O=C(O)[C@H]1C[C@H]1C(=O)N1CCC[C@H](CNc2nc(-c3c[nH]c4ncc(Cl)cc34)ncc2F)C1` [Compound 83, (1S,2R)-2-((R)-3-((2-(5-chloro-1H-pyrrolo[2,3-b]pyridin-3-yl)-5-fluoropyrimidin-4-ylamino)methyl)piperidine-1-carbonyl)cyclopropanecarboxylic acid], the IC50 was greater than 20 µM.
Still for that read-out and setting: then `O=C(c1c(Cl)cccc1Cl)N1CCC[C@H](CNc2nc(-c3c[nH]c4ncc(Cl)cc34)ncc2F)C1` [Compound 96, (R)-(3-((2-(5-chloro-1H-pyrrolo[2,3-b]pyridin-3-yl)-5-fluoropyrimidin-4-ylamino)methyl)piperidin-1-yl)(2,6-dichlorophenyl)methanone], with 5 to 20 µM; and `O=C(c1ccc2c(c1)OCO2)N1CCC[C@H](CNc2nc(-c3c[nH]c4ncc(Cl)cc34)ncc2F)C1` [Compound 103, (R)-benzo[d][1,3]dioxol-5-yl(3-((2-(5-chloro-1H-pyrrolo[2,3-b]pyridin-3-yl)-5-fluoropyrimidin-4-ylamino)methyl)piperidin-1-yl)methanone], with less than 5 µM; and `CC(C)(C)OC(=O)N1CCC[C@H](CNc2nc(-c3c[nH]c4ncc(N)cc34)ncc2F)C1` [Compound 114, (R)-tert-butyl 3-((2-(5-amino-1H-pyrrolo[2,3-b]pyridin-3-yl)-5-fluoropyrimidin-4-ylamino)methyl)piperidine-1-carboxylate], with greater than 20 µM.
For `N[C@@H]1CCCC[C@H]1Nc1nc(-c2c[nH]c3ncc(Cl)cc23)ncc1Cl` [Compound 115, (1R,2R)—N1-(5-chloro-2-(5-chloro-1H-pyrrolo[2,3-b]pyridin-3-yl)pyrimidin-4-yl)cyclohexane-1,2-diamine], the IC50 is greater than 20 µM.
On the same count and under the same terms, the figure for `Cc1cnc(-c2c[nH]c3ncc(Cl)cc23)nc1NC1CCCCC1N` (stereo not drawn) [Compound 116, N1-(2-(5-chloro-1H-pyrrolo[2,3-b]pyridin-3-yl)-5-methylpyrimidin-4-yl)cyclohexane-1,2-diamine] is greater than 20 µM; for `CCOC(=O)CCNC(=O)N1CCC[C@H](CNc2nc(-c3c[nH]c4ncc(Cl)cc34)ncc2F)C1` [Compound 118, (R)-ethyl 3-(3-((2-(5-chloro-1H-pyrrolo[2,3-b]pyridin-3-yl)-5-fluoropyrimidin-4-ylamino)methyl)piperidine-1-carboxamido)propanoate] it is 5 to 20 µM; for `Cc1csc(NC(=O)N2CCC[C@H](CNc3nc(-c4c[nH]c5ncc(Cl)cc45)ncc3F)C2)c1` [Compound 130, (R)-3-((2-(5-chloro-1H-pyrrolo[2,3-b]pyridin-3-yl)-5-fluoropyrimidin-4-ylamino)methyl)-N-(4-methylthiophen-2-yl)piperidine-1-carboxamide] it is less than 5 µM.
For `COC(CN1CCC[C@@H](CNc2nc(-c3c[nH]c4ncc(Cl)cc34)ncc2F)C1)OC` [Compound 132, (S)-2-(5-chloro-1H-pyrrolo[2,3-b]pyridin-3-yl)-N-((1-(2,2-dimethoxyethyl)piperidin-3-yl)methyl)-5-fluoropyrimidin-4-amine], the IC50 is greater than 20 µM.
For the compound `OCCN1CCC[C@@H](CNc2nc(-c3c[nH]c4ncc(Cl)cc34)ncc2F)C1` [Compound 133, (S)-2-(3-((2-(5-chloro-1H-pyrrolo[2,3-b]pyridin-3-yl)-5-fluoropyrimidin-4-ylamino)methyl)piperidin-1-yl)ethanol], the IC50 was greater than 20 µM.
Consider `Fc1cnc(-c2c[nH]c3ncc(Cl)cc23)nc1NC[C@@H]1CCCN(CC2CCCCC2)C1` [Compound 134, (S)-2-(5-chloro-1H-pyrrolo[2,3-b]pyridin-3-yl)-N-((1-(cyclohexylmethyl)piperidin-3-yl)methyl)-5-fluoropyrimidin-4-amine], for which the IC50 lay within 5 to 20 µM.
`C[C@H](CO)CN1CCCC(CNc2nc(-c3c[nH]c4ncc(Cl)cc34)ncc2F)C1` (stereo partly drawn) [Compound 135]: the IC50 is greater than 20 µM.
In the case of `Cc1cccc(CN2CCC[C@@H](CNc3nc(-c4c[nH]c5ncc(Cl)cc45)ncc3F)C2)c1` [Compound 137, (S)-2-(5-chloro-1H-pyrrolo[2,3-b]pyridin-3-yl)-5-fluoro-N-((1-(3-methylbenzyl)piperidin-3-yl)methyl)pyrimidin-4-amine], the IC50 is greater than 20 µM.
On the same count and under the same terms, the figure for `Cc1ccccc1CN1CCC[C@@H](CNc2nc(-c3c[nH]c4ncc(Cl)cc34)ncc2F)C1` [Compound 139, (S)-2-(5-chloro-1H-pyrrolo[2,3-b]pyridin-3-yl)-5-fluoro-N-((1-(2-methylbenzyl)piperidin-3-yl)methyl)pyrimidin-4-amine] is greater than 20 µM; for `CC(C)(C)C(=O)CN1CCC[C@@H](CNc2nc(-c3c[nH]c4ncc(Cl)cc34)ncc2F)C1` [Compound 140, (S)-1-(3-((2-(5-chloro-1H-pyrrolo[2,3-b]pyridin-3-yl)-5-fluoropyrimidin-4-ylamino)methyl)piperidin-1-yl)-3,3-dimethylbutan-2-one] it is greater than 20 µM; for `C[C@@H](CO)CN1CCC[C@@H](CNc2nc(-c3c[nH]c4ncc(Cl)cc34)ncc2F)C1` [Compound 141, (R)-3-((S)-3-((2-(5-chloro-1H-pyrrolo[2,3-b]pyridin-3-yl)-5-fluoropyrimidin-4-ylamino)methyl)piperidin-1-yl)-2-methylpropan-1-ol] it is greater than 20 µM.
With `O=C(c1ccccc1Oc1ccccc1)N1CCC[C@H](CNc2nc(-c3c[nH]c4ncc(Cl)cc34)ncc2F)C1` [Compound 150, (R)-(3-((2-(5-chloro-1H-pyrrolo[2,3-b]pyridin-3-yl)-5-fluoropyrimidin-4-ylamino)methyl)piperidin-1-yl)(2-phenoxyphenyl)methanone], the IC50 was in the range of 5 to 20 µM.
On to `CCOc1ccccc1C(=O)N1CCC[C@H](CNc2nc(-c3c[nH]c4ncc(Cl)cc34)ncc2F)C1` [Compound 158, (R)-(3-((2-(5-chloro-1H-pyrrolo[2,3-b]pyridin-3-yl)-5-fluoropyrimidin-4-ylamino)methyl)piperidin-1-yl)(2-ethoxyphenyl)methanone], for which the IC50 is less than 5 µM.
As for `O=C(c1nccs1)N1CCCC[C@H]1CNc1nc(-c2c[nH]c3ncc(Cl)cc23)ncc1F` [Compound 165, (S)-(2-((2-(5-chloro-1H-pyrrolo[2,3-b]pyridin-3-yl)-5-fluoropyrimidin-4-ylamino)methyl)piperidin-1-yl)(thiazol-2-yl)methanone], the IC50 is greater than 20 µM.
For the compound `COc1cccc(C(=O)N2CCCC[C@H]2CNc2nc(-c3c[nH]c4ncc(Cl)cc34)ncc2F)c1` [Compound 174, (S)-(2-((2-(5-chloro-1H-pyrrolo[2,3-b]pyridin-3-yl)-5-fluoropyrimidin-4-ylamino)methyl)piperidin-1-yl)(3-methoxyphenyl)methanone], the IC50 was greater than 20 µM.
For the compound `COc1cccc(C(=O)N2CCCC[C@@H]2CNc2nc(-c3c[nH]c4ncc(Cl)cc34)ncc2F)c1` [Compound 184, (R)-(2-((2-(5-chloro-1H-pyrrolo[2,3-b]pyridin-3-yl)-5-fluoropyrimidin-4-ylamino)methyl)piperidin-1-yl)(3-methoxyphenyl)methanone], the IC50 was greater than 20 µM.
In the case of `COc1ccccc1C(=O)N1CCCC[C@@H]1CNc1nc(-c2c[nH]c3ncc(Cl)cc23)ncc1F` [Compound 190, (R)-(2-((2-(5-chloro-1H-pyrrolo[2,3-b]pyridin-3-yl)-5-fluoropyrimidin-4-ylamino)methyl)piperidin-1-yl)(2-methoxyphenyl)methanone], the IC50 lay in the range of 5 to 20 µM.
On to `CCCC(=O)N1CCC[C@@H](CNc2nc(-c3c[nH]c4ncccc34)ncc2F)C1` [Compound 225, (S)-1-(3-((5-fluoro-2-(1H-pyrrolo[2,3-b]pyridin-3-yl)pyrimidin-4-ylamino)methyl)piperidin-1-yl)butan-1-one], for which the IC50 was in the range of 5 to 20 µM.
Take `CN(C)C(=O)N1CCC[C@@H](CNc2nc(-c3c[nH]c4ncccc34)ncc2F)C1` [Compound 228, (S)-3-((5-fluoro-2-(1H-pyrrolo[2,3-b]pyridin-3-yl)pyrimidin-4-ylamino)methyl)-N,N-dimethylpiperidine-1-carboxamide]: the IC50 is 5 to 20 µM.
Same read-out and setting: then `CC(=O)N1CCCC[C@H]1CNc1nc(-c2c[nH]c3ncccc23)ncc1F` [Compound 256, (S)-1-(2-((5-fluoro-2-(1H-pyrrolo[2,3-b]pyridin-3-yl)pyrimidin-4-ylamino)methyl)piperidin-1-yl)ethanone], with 5 to 20 µM.

The assay is the same for the next values; noted with them: Influenza A virus, PR/8, MDCK; read-out: IC50 (mean all).
As to `COC(=O)/C=C/CN1CCC[C@@H](CNc2nc(-c3c[nH]c4ncc(Cl)cc34)ncc2F)C1` [Compound 138, (S,E)-methyl 4-(3-((2-(5-chloro-1H-pyrrolo[2,3-b]pyridin-3-yl)-5-fluoropyrimidin-4-ylamino)methyl)piperidin-1-yl)but-2-enoate], the IC50 is greater than 20 µM.

Staying with this assay, now noted: MDCK cells infected with A/PR/8/34, cell protection (CPE); read-out: IC50 (mean all).
Regarding `NC1CCCCC1Nc1nc(-c2c[nH]c3ncccc23)ncc1F` (stereo not drawn) [Compound 206, N-[5-fluoro-2-(1H-pyrrolo[5,4-b]pyridin-3-yl)pyrimidin-4-yl]cyclohexane-cis-1,2-diamine], the IC50 was less than 5 µM.
